# Experimental data published in patent US20260286316A1, “METHOD OF PRODUCTION OF MODIFIED PHAGE AND METHOD OF TREATMENT USING SAME” (priority 2022, published 2026).
# Read-outs that look alike come from different tables or passages of the source.
# What was measured:
# [1] = test system: S. aureus ATCC51650 and CIs (CI2, CI3, CI4, CI6, CI7, CI8, CI9, and CI11); type: cell-based, Staphylococcus aureus
# Method: (§1) Initial screening was performed in 100 μl in 96 well plates, with follow up experiments in 10 mL culture volume. S. aureus strains were grown on 1.5% Tryptone Soya Agar (TSA) at 37° C. overnight. Single colonies were transferred to Tryptone Soya Broth (TSB) to generate a culture with a starting concentration of 5×10^5 CFU/ml. […] Antibiotics were added to the cultures at ½ MIC (according to the pretest MIC of antibiotics) if required. Optical density (OD) readings at 600 nm were recorded at 24 hours to assess the growth of bacteria co-inoculated with phage unless otherwise specified. Uninoculated, fresh media was included as a sterility control.
# A synergistic effect was defined as a statistically significant decrease in optical density (OD) that was larger than the combined decrease in OD of antibiotic and phage only controls.
# S. aureus CI3 [2] = assay: Phage combined with ½ MIC antibiotics on planktonic S. aureus (OD600), CI3; type: cell-based, Staphylococcus aureus; conditions: ½ MIC antibiotic, phage MOI=0.2, 24 hours
# Method: as §1
# [3] = test system: S. aureus isolates (15 clinical isolates and 2 ATCC strains); assay: Antibiotic sensitivity testing, 17 isolates; type: cell-based, Staphylococcus aureus; conditions: of 17 S. aureus isolates
# Method: S. aureus ATCC51650 and ATCC25923 were obtained from the American Type Culture Collection (Manassas, VA, United States of America) and used as reference strains. In addition, a total of 15 S. aureus clinical isolates (CIs) were isolated from the sinonasal cavities of chronic sinusitis (CRS) patients. In each case, S. aureus was cultured by an independent diagnostic laboratory and the antibiotic susceptibility determined by disc diffusion on Mueller-Hinton agar per Clinical and Laboratory Standards Institute (CLSI) recommendations (Adelaide Pathology Partners, Mile End, SA, Australia). Bacteria were isolated on Columbian horse blood agar plates, colistin nalidixic acid plates, or cystine lactose electrolyte-deficient plates (Oxoid Australia Pty Ltd, Thebarton, SA, Australia). Positive cultures were confirmed to be S. aureus using latex agglutination testing.
# (§2) The minimum inhibitory concentration (MIC) of amoxicillin, vancomycin, erythromycin, clindamycin and azithromycin against the S. aureus strains was assessed using the broth microdilution technique as previously described (Wiegand I et al., Nature protocols 3 (2): 163-175, 2008) and breakpoints defined according to CSLI guidelines. Clinical strains resistant to at least one antibiotic in three or more antibiotic categories were defined as multidrug resistant (MDR).
# S. aureus CI3 [4] = assay: Antibiotic sensitivity of the isolate selected for in vivo experiments; type: cell-based, Staphylococcus aureus
# Method: as §2
# A fresh culture of CI3 on 1.5% TSA plates was prepared two days before inoculation. A single colony was resuspended in 0.9% saline (ca. 2 ml) to turbidity reading 0.5 McFarland Units and then a 1 in 100 dilution in TSB was cultured overnight one day before the in vivo experiment. CI3 pellets were harvested and resuspended in fresh TSB to reach 2.5×10^9 Colony Forming Units (CFU)/ml.
# S. aureus CI3 [5] = assay: Rat rhinosinusitis model, efficacy arm (sinus mucosa CFU, biofilm biomass, histopathology); type: in vivo, Sprague Dawley rats
# Source text: Rat nasal tissues were fixed in 10% neutral buffered formalin. Tissue samples were then decalcified using 9.5% nitric acid in 1% ethylenediaminetetracetic acid (EDTA), processed to paraffin wax, and 6 μm sections cut and stained with H&E. The samples were examined by a veterinary pathologist blinded to the treatments given.
# An established murine rhinosinusitis model was used with modifications (see YU C-j et al., Chinese Journal of Otorhinolaryngology-Skull Base Surgery 6, 2011; Zhang F et al., Am J Rhinol Allergy 27 (5): 361-366, 2013; and Jin M et al., Ear Arch Oto-Rhino-L 268 (6): 857-861, 2011). […] The sponges were placed at approximately 15 mm from the anterior nostril, located in the ostiomeatal complex. The rats were monitored for a nine-day period to allow for mucosal biofilms to form, and, on the tenth day, the sponges were removed. A two-day recovery was given to the rat before treatments begun. […] Treatments were administered intranasally twice a day for 14 days. Rats were monitored for weight and respiratory alterations (respiration rate; nasal discharge, hyperaemia or pruritus; and sneezing) during treatment, and, 14 days post-treatment initiation, the rats were humanely sacrificed. Their sinus mucosa was harvested for CFU counting, biofilm quantification, histopathology, and phage enumeration. […]
# The quantification of biofilm biomass on sinus mucosa was determined using an established protocol (Singhal D et al., editors. Quantitative analysis of in vivo mucosal bacterial biofilms. International Forum of Allergy & Rhinology; 2012: Wiley Online Library (27). Briefly, the frontal sinus mucosa was harvested and placed into Dulbecco's Modified Eagle's Medium (Life Technologies, Carlsbad, CA, United States of America) on ice. One piece of mucosa from each frontal sinus was stained with a LIVE/DEAD® BacLight Bacterial Viability Kit (Life Technologies Australia). The stained mucosa was then examined at 20× magnification using a confocal laser scanning microscope (Zeiss LSM700, Carl Zeiss AG, Oberkochen, Germany). […]
smiles,measurement,setting,value
CC1(C)S[C@@H]2[C@H](NC(=O)[C@H](N)c3ccc(O)cc3)C(=O)N2[C@H]1C(=O)O [amoxicillin],additive or synergistic effect of the antibiotic combined with phage,"[1]; ½ MIC antibiotic with J-Sa36, Sa83 or Sa87 (MOI=0.2)",None of the combinations of phage with either of the cell wall actives (amoxicillin and vancomycin) showed any significant additive or synergistic effects
CC[C@H]1OC(=O)[C@H](C)[C@@H](O[C@H]2C[C@@](C)(OC)[C@@H](O)[C@H](C)O2)[C@H](C)[C@@H](O[C@@H]2O[C@H](C)C[C@H](N(C)C)[C@H]2O)[C@](C)(O)C[C@@H](C)CN(C)[C@H](C)[C@@H](O)[C@]1(C)O [azithromycin],"synergistic effects with phage J-Sa36, Sa83 and Sa87 on bacterial viability (OD600)",S. aureus CI3 [2],synergistic effects
same,isolates exhibiting resistance to the antibiotic,[3],two
same,antibiotic sensitivity of the isolate,S. aureus CI3 [4],sensitive
same,"biofilm biomass on sinus mucosa compared to control, single agent",S. aureus CI3 [5]; 0.5×10^10 PFU/ml Sa87 or ½ MIC antibiotic alone,significant increase in biomass
same,"histopathology of the maxilloturbinates, single agent","S. aureus CI3 [5]; Sa87, ½ MIC clindamycin or ½ MIC azithromycin only",evidence of cilial denudation and surface epithelial erosion
CC[C@H]1OC(=O)[C@H](C)[C@@H](O[C@H]2C[C@@](C)(OC)[C@@H](O)[C@H](C)O2)[C@H](C)[C@@H](O[C@@H]2O[C@H](C)C[C@H](N(C)C)[C@H]2O)[C@](C)(O)C[C@@H](C)C(=O)[C@H](C)[C@@H](O)[C@]1(C)O [erythromycin],"synergistic effects with phage J-Sa36, Sa83 and Sa87 on bacterial viability (OD600)",S. aureus CI3 [2],synergistic effects
same,isolates exhibiting resistance to the antibiotic,[3],three
CN[C@H](CC(C)C)C(=O)N[C@H]1C(=O)N[C@@H](CC(N)=O)C(=O)N[C@H]2C(=O)N[C@H]3C(=O)N[C@H](C(=O)N[C@H](C(=O)O)c4cc(O)cc(O)c4-c4cc3ccc4O)[C@H](O)c3ccc(c(Cl)c3)Oc3cc2cc(c3O[C@@H]2O[C@H](CO)[C@@H](O)[C@H](O)[C@H]2O[C@H]2C[C@](C)(N)[C@H](O)[C@H](C)O2)Oc2ccc(cc2Cl)[C@H]1O [vancomycin],additive or synergistic effect of the antibiotic combined with phage,[1],None of the combinations of phage with either of the cell wall actives (amoxicillin and vancomycin) showed any significant additive or synergistic effects
